Where no end group is shown, it is not given here.
What was measured:
[1] = r1 relaxivity by T1 mapping in PC3 tumor lysates; assay type: physicochemical
[2] = tested on: LNCaP prostate tumor xenografts; assay: T1-weighted MRI at 1 Tesla, LNCaP tumors (Example 3); assay type: in vivo, mouse; settings: 0.1 mmol/kg i.v., up to 30 min
Description: (§1) Male athymic nude mice were purchased from Case Comprehensive Cancer Center (Cleveland, Ohio, USA) and housed in the Animal Core Facility at Case Western Reserve University. All animal experiments were performed in accordance with the animal protocol approved by the CWRU Institutional Animal Care and Use Committee. Athymic nude male mice were subcutaneously injected with 100 μL cell suspension (4×10^7 cells/mL) in matrigel matrix (Corning Bioscience, Corning, N.Y.) to initiate tumors. Mice with tumors of 5-8 mm in diameter were used for imaging studies.
MR images of tumor bearing mice were acquired on an Aspect M3 small animal MRI scanner (1 Tesla). Mice were placed on a holder with the temperature maintained at 37° C., with isoflurane/oxygen mixture supplied to the mice through a nose cone. A thin catheter filled with PBS was connected to a tail vein of the mice. After mice were placed in the coil, a pilot scan was performed to adjust mice to the proper location in the coil. […] Images were exported into DICOM data, which were then processed and analyzed using Matlab (Natick, Mass., USA). The contrast to-noise ratio of tumors in the images were calculated as the difference between tumor mean intensity minus muscle mean intensity, divided by the noise.

[3] = tested on: PC3 prostate tumor xenografts; assay: T1-weighted MRI at 1 Tesla, PC3 tumors (Example 3); assay type: in vivo, mouse; settings: 0.1 mmol/kg i.v., up to 30 min, 1 Tesla
Description: as §1
MR images of tumor bearing mice were acquired on an Aspect M3 small animal MRI scanner (1 Tesla). Mice were placed on a holder with the temperature maintained at 37° C., with isoflurane/oxygen mixture supplied to the mice through a nose cone. A thin catheter filled with PBS was connected to a tail vein of the mice. After mice were placed in the coil, a pilot scan was performed to adjust mice to the proper location in the coil. An axial T1 weighted sequence (TR=500 ms; TE=9 ms; Flip angle=90°; Field of view=3 cm×3 cm; Matrix size=128×128×8; slice thickness=2 mm; interslice distance=1 mm) was then used to acquire the images of the tumors before and 10 min, 20 min and 30 min after contrast injection. Images were exported into DICOM data, which were then processed and analyzed using Matlab (Natick, Mass., USA). The contrast to-noise ratio of tumors in the images were calculated as the difference between tumor mean intensity minus muscle mean intensity, divided by the noise.

[4] = Relaxivity at 1.5T in water, 37° C.; assay type: physicochemical; settings: listed as Gd(HP-DO3A)
Description: Relaxivity is an important parameter for an MR contrast agent. It reflects how the relaxation rate of the surrounding water proton changes as a function of concentration, and it is directly associated with the agent's contrast enhancing capability during imaging. The relaxivity of the 4 contrast agents was tested at 37° C. in water and compared to Gd(HP-DO3A), Gd-DOTA and ZD2-Gd(HP-DO3A) (FIG. 26). […] Compared to Gd(HP-DO3A), Gd-DOTA, the size increase of the targeted contrast agents due to the peptides and PEG spacer could result in an increase of τR,^[42, 43] thus leading to higher relaxivities.

[5] = tested on: PC3 prostate tumor xenografts; assay: In vivo T1-weighted MRI at 7T, PC3 tumors; set-up: species or system mouse
Description: (§2) All MRI experiments were performed on a horizontal 7T Bruker scanner (Bruker Biospin Co., Billerica, Mass.). Imaging experiments were performed when the tumor size reached 5-8 mm in diameter. ZD2-Gd(HP-DO3A) was administered intravenously at the dose of 0.1 mmol/kg after acquiring pre-contrast images. Post-contrast images were obtained at 10 min interval up to 30 min. The axial slices of mouse at the tumor location were acquired using T1-weighted spin echo sequence with the following parameters: field of view (FOV): 3 cm; slice thickness: 1.2 mm; interslice distance: 1.2 mm; TR: 500 ms, TE: 8.1 ms; flip angle: 90°; average: 2; matrix size: 128×128. Contrast-to-noise ratio (CNR) at each time point was calculated by subtraction of the average signal intensity in the tumor and muscle, divided by the standard deviation of image noise. ProHance® (gadoteridol) was used as a control in the imaging experiments.

[6] = tested on: PC-3 human prostate cancer xenograft; assay: MRI of PC-3 xenograft (Example 2); assay type: in vivo, mouse; settings: 0.1 mmol-Gd/kg intravenous
Text: The same contrast agent also works for prostate cancer imaging. We then tested the effectiveness of targeting EDB-FN with the contrast agent for prostate cancer MRI in male nude mice bearing primary PC-3 human prostate cancer xenograft.

PC3 tumors = assay: In vivo MRI at 1.0 Tesla, PC3 tumor-bearing mice (Example 5); set-up: species or system mouse
Description: All MRI experiments were performed on an Aspect M3 compact MRI scanner (1.0 Telsa, Aspect Imaging. Israel). Imaging experiments were performed when the tumor size reached 5-8 mm in diameter. Each contrast agent was administered intravenously at a dose of 0.1 mmol/kg Gd^3+ after acquiring pre-contrast images. ProHance® (gadoteridol) was used as a control in the imaging experiments. Post-contrast images were obtained at 10 min intervals up to 30 min. Axial slices of the mouse at the tumor location were acquired using a T1-weighted spin echo sequence with the following parameters: TR=500 ms, TE=8.144 ms, slice thickness=1 mm, inter-slice gap=0.1 mm, field of view (FOV)=3 cm×3 cm. The total imaging time is 216 seconds. Contrast-to-noise ratio (CNR) at each time point was calculated by measuring the ratios of signal intensities in manually drawn regions of interest (ROIs) in tumor and muscle, and then normalizing to image noise. A 3D FLASH gradient echo sequence was used for whole-body coronal imaging. Imaging parameters were TR=17.362 ms, TE=6 ms, flip angle=15°, slice thickness=1.5 mm, FOV=[…]. The total imaging time is 226 seconds. Each of the 16 slices was acquired immediately after the acquisitions with the T1-weighted spin echo sequence.

[7] = tested on: LNCaP prostate tumor xenografts; assay: In vivo T1-weighted MRI at 7T, LNCaP tumors; set-up: species or system mouse
Description: as §2

TGFβ induced 4T1 cells = assay: Binding of Cy5 probes to TGFβ induced 4T1 cells in vitro; assay type: cell-based
Description: As tumor cells produce EDB-FN to promote its migration, we further validated if Cy5 labeled l-ZD2 (l-ZD2-Cy5) can bind to TGFβ induced 4T1 cells in vitro. […] To explain this, we hypothesize that in this form of cell culture, no clot formation can take action to provide binding sites for CREKA-Cy5. To validate our hypothesis, we further produced a 3D culture system that mimics the “soil” of metastatic tumor. In the 3D culture system, 4T1 cells were cultured in a microenvironment containing TGFβ, collagen, and fibrin. […] In overall, these evidences point to the conclusion that the use of EDB-FN for targeting micrometastasis may be advantageous compared with Fibronectin-Fibrin complexes in that EDB-FN appears earlier than Fibronectin-Fibrin in the pre-metastatic niche.

4T1 metastatic tumors = assay: Fluorescence detection of micrometastasis, breast cancer metastatic tumor model; assay type: in vivo, mouse; settings: three hours after 10 nmol injection
Description: In order to construct a metastatic tumor model, 0.2×10^6 4T1 tumor cells undergone 5 days of TGFβ induction were injected through left ventricle of heart, resulting in the spread of tumor cells primarily in brain, lung, liver, lymph node, adrenal gland, chest, and bone marrow. Bioluminescent images of the mice at two weeks were used to monitor the growth of tumors. To assess the targeting capacity of l-ZD2-Cy5, brain and lung were harvested from the mice three hours after 10 nmol l-ZD2-Cy5 were injected. […] Normal brain and lung harvested from normal mice injected with l-ZD2-Cy5 were used as negative controls. Examination of bigger metastatic tumors in lymph nodes and adrenal gland, as shown in FIG. 8B further backed up the targeting efficiency of l-ZD2-Cy5.

EDA = EDA (Homo sapiens, UniProt P02751); assay: ELISA of l-ZD2-HRP on EDA; assay type: binding
Text: (§3) Similarly, CERAK-HRP is synthesized as a control.

EDB fragment = EDB fragment (Homo sapiens, UniProt P02751); assay: Peptide ELISA of HRP-conjugated peptides on coated EDB; assay type: binding; settings: HRP conjugates
Description: A linear version of ZD2 (CTVRTSADA) SEQ ID NO: 42 was synthesized so that sulfhydryl group on cysteine could be used for conjugation with maleimide-activated […] (Sigma-Aldrich). Conjugation was carried out as instructed in the manual. The product of conjugation, ZD2-HRP, was used for peptide ELISA assay after coating a 96-well plate with purified EDB. 0.5% BSA in PBS was used to block non-specific binding for later steps. 0.39 μM to 50 μM of ZD2-HRP was incubated with coated EDB for an hour followed by extensive washing with TBST (0.1%). ABTS substrate was added subsequently and allowed to react for 30 min before the absorbance of solution in each well were measured at 415 nm. Non-coated wells added with ABTS were used as blank.
Cyclic ZD2 peptide (CTVRTSADC) (SEQ ID NO: 10) was synthesized using standard solid phase peptide chemistry and was characterized by MALDI-TOF mass spectrometry (FIG. 1C). The peptide was then labeled with a fluorescence chromophore cyanine 5 (Cy5) through a short PEG linker (NH2—(CH2CH2O)—CH2CH2COOH) to give a peptide fluorescence probe ZD2-Cy5. The peptide was also conjugated to peroxidase (ZD2-HRP) and the binding affinity of the peptide to EDB fragment was determined using peptide ELISA assay.
as §3

[8] = 0.1 mmol/kg i.v., up to 30 min, 7T

EDA, sequence (P02751 1727-1814 limits assumed): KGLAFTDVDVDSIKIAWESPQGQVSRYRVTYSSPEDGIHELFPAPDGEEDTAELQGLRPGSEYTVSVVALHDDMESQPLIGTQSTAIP
EDB fragment, sequence (P02751 1271-1359 limits assumed): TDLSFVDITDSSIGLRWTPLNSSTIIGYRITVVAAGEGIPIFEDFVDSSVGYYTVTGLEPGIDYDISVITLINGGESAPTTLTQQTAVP

**Q.** Which r1 relaxivity [1] does the source give for `CC(O)CN1CCN(CC(=O)[O-])CCN(CC(=O)[O-])CCN(CC(=O)[O-])CC1.[Gd+3]` (centres unmarked) [ProHance, gadoteridol, reference compound] here?
**A.** Its r1 relaxivity is 3.17 mM⁻¹ s⁻¹.

**Q.** What about the “signal enhancement in LNCaP tumors” value [2] of the same compound?
**A.** The value was “modest contrast enhancement”.

**Q.** What about the “signal enhancement in PC3 tumors” value [3] of the same compound?
**A.** Its value is “modest contrast enhancement”.

**Q.** What about the r1 [4] of the same compound?
**A.** The r1 was 2.9 mM⁻¹ s⁻¹.

**Q.** What about the “signal enhancement in PC3 tumors” value [5, 8] of the same compound?
**A.** The value was “modest contrast enhancement”.

**Q.** What about the “CNR in PC3 tumors” value ([5]; 10-30 min post-injection) of the same compound?
**A.** Its value is 7˜11.

**Q.** And the tumor contrast enhancement [6]?
**A.** The tumor contrast enhancement was “little contrast enhancement”.

**Q.** And the “tumor signal enhancement, T1-weighted spin-echo” value (PC3 tumors; 0.1 mmol/kg i.v., at 10 minutes, remained at least 30 min)?
**A.** Its value is “modest contrast enhancement”.

**Q.** What about the “time of peak CNR in PC3 tumors” value (PC3 tumors; Gd-DOTA conjugates and ProHance, 0.1 mmol/kg) of the same compound?
**A.** The value was 10 min.

**Q.** And the “CNR in PC3 tumors compared to the peptide targeted contrast agents” value (PC3 tumors; especially at 20 and 30 min)?
**A.** Its value is “lower CNR”.

**Q.** What about the “signal enhancement in LNCaP tumors” value [7, 8] of the same compound?
**A.** Its value is “modest contrast enhancement”.

**Q.** And the “CNR in LNCaP tumors” value ([7]; 10-30 min post-injection)?
**A.** Its value is 7˜10.

**Q.** For “l-ZD2-Cy5: Cy5 labeled l-ZD2 (TVRTSAD; also: Cy5 labeled, site not given here)”, which “binding to induced 4T1 cells” value (TGFβ induced 4T1 cells; cell culture) is on record?
**A.** Its value is “bound to induced 4T1 cells within 3 hours”.

**Q.** What about the “binding in 3D culture of 4T1 cells” value (TGFβ induced 4T1 cells; microenvironment containing TGFβ, collagen, and fibrin) of the same compound?
**A.** Its value is “accumulated in the cell periphery starting from day 1”.

**Q.** And the “binding to micrometastases on brain and lung” value (4T1 metastatic tumors)?
**A.** Its value is “clearly outlined the micrometastases”.

**Q.** Which “binding to EDA” value (EDA) does the source give for “l-ZD2-HRP: NH2-TVRTSADC-COOH conjugated via cysteine thiol to maleimide activated horseradish peroxidase” here?
**A.** The value was “No binding”.

**Q.** What about the “binding to EDB protein” value (EDB fragment) of the same compound?
**A.** The value was “comparable to cyclic ZD2 with a slight increase in affinity”.
